Experiment: DPPH assay (free-radical scavenging, antioxidant activity)
Format: biochemical
Settings: for AE (×10^−3): anti-free-radical efficiency, obtained from EC50 and TEC50; for TEC50: reaction time necessary to achieve the EC50 value
Method: 2,2-Diphenyl-1-picrylhydrazyl is a free radical which is stable in solution. The unpaired electron results in a strong absorption band at 515 nm, and the solution has a dark violet color. In the presence of a free-radical scavenger, the electron is paired, the absorption disappears, and the decoloration proceeds stoichiometrically taking into account the electrons taken up. The absorbance is measured in a photometer. The anti-free-radical property of the substance to be tested is determined by measuring the concentration at which 50% of the 2,2-diphenyl-1-picrylhydrazyl employed has reacted with the free-radical scavenger. This concentration is expressed as EC50, a value which can be considered to be a property of the substance under the given measurement conditions. The substance investigated is compared with a standard (for example tocopherol). The EC50 value here is a measure of the capacity of the respective compound to scavenge free radicals. The lower the EC50 value, the higher the capacity to scavenge free radicals.
A further important aspect for the action of the antioxidants is the time in which this EC50 value is reached. This time, measured in minutes, gives the TEC50 value, which allows a conclusion to be drawn on the rate at which these antioxidants scavenge free radicals.
The antioxidant activity of the compounds according to the invention is determined compared with the activity of quercetin (3,5,7,3′,4′-pentahydroxyflavone) and other conventional antioxidants. The antioxidant activity here is taken to mean the ability to function as hydrogen or electron donor and thus to be able to scavenge free radicals. DPPH assay is used for the determination.
A stock solution of 2,2-diphenyl-1-picrylhydrazyl (DPPH) in ethanol is prepared (0.025 g/l of DPPH-free radicals). Aliquots of this solution are mixed with various concentrations of the compound to be tested. The absorbance is in each case measured at 515 nm, 25° C. and 1 cm.
The lower this value, the higher the corresponding antioxidant activity.
The reaction time necessary to achieve this value is indicated in the value TEC50 (in minutes).
The anti-free-radical efficiency (AE) is obtained from this in accordance with the following relationship: [formula]
A higher AE value here indicates a higher activity against free radicals.

Compound	AE (×10^−3)	TEC50
O=C1c2c(O)cc(O)cc2OC(c2ccc(O)c(O)c2)C1O (stereo not shown) [3,5,7,3′,4′-Pentahydroxyflavanone]	5.53 ×10^−3	1200 min
O=c1c(O)c(-c2ccc(O)c(O)c2)oc2cc(O)cc(O)c12 [3,5,7,3′,4′-pentahydroxyflavone]	18.72 ×10^−3	600 min
O=c1cc(-c2ccccc2)oc2cc(O)c(O)c(O)c12 [5,6,7-Trihydroxyflavone/bacalein, 5,6,7-trihydroxyflavone]	27.78 ×10^−3	360 min
O=c1cc(-c2ccc(O)c(O)c2)oc2ccc(O)cc12 [6,3′,4′-Trihydroxyflavone, 6,3′,4′-trihydroxyflavone]	46.30 ×10^−3	180 min
O=c1cc(-c2ccc(O)c(O)c2)oc2c(O)c(O)ccc12 [7,8,3′,4′-Tetrahydroxyflavone, 7,8,3′,4′-tetrahydroxyflavone]	18.52 ×10^−3	600 min
O=C1O[C@H]([C@@H](O)CO)C(O)=C1O [Ascorbic acid]	61.72 ×10^−3	<60 min
COc1cc(/C=C/C(=O)O)ccc1O [Ferulic acid]	4.9 ×10^−3	600 min
Tocopherol	64.1 ×10^−3	<60 min

From US20040067894A1, “Preparation having antioxidant properties” (Merck Patent GmbH, priority 2002, published 2004)
